Experiment: xn = mol fraction of the nth substance listed

CCCCCCN + CCCCN(CCCC)CCCC
viscosity [mPa·s], 101 kPa
Details | x2 = 0.1032 | x2 = 0.1936 | x2 = 0.3936 | x2 = 0.4924 | x2 = 0.6079 | x2 = 0.782 | x2 = 0.9153
303.15 K | 0.7562 | 0.7958 | 0.8857 | 0.9301 | 0.9836 | 1.063 | 1.125
313.15 K | 0.6517 | 0.6853 | 0.7606 | 0.7985 | 0.8436 | 0.9122 | 0.9652

COCCOCCOC + CCCCCCCO
101 kPa
Details | viscosity [mPa·s]
293.15 K, x1 = 0.04527 | 5.749
293.15 K, x1 = 0.09631 | 4.758
293.15 K, x1 = 0.1964 | 3.424
293.15 K, x1 = 0.2974 | 2.659
293.15 K, x1 = 0.3948 | 2.201
293.15 K, x1 = 0.4982 | 1.826
293.15 K, x1 = 0.5957 | 1.573
293.15 K, x1 = 0.6957 | 1.385
293.15 K, x1 = 0.8053 | 1.255
293.15 K, x1 = 0.8916 | 1.169
293.15 K, x1 = 0.957 | 1.12
303.15 K, x1 = 0.05391 | 4.113
303.15 K, x1 = 0.09481 | 3.59
303.15 K, x1 = 0.198 | 2.635
303.15 K, x1 = 0.2974 | 2.097
303.15 K, x1 = 0.3935 | 1.765
303.15 K, x1 = 0.4894 | 1.515
303.15 K, x1 = 0.5993 | 1.294
303.15 K, x1 = 0.6968 | 1.153
303.15 K, x1 = 0.8032 | 1.053
303.15 K, x1 = 0.8887 | 0.999
303.15 K, x1 = 0.9613 | 0.958
313.15 K, x1 = 0.05044 | 3.122
313.15 K, x1 = 0.0869 | 2.793
313.15 K, x1 = 0.1869 | 2.128
313.15 K, x1 = 0.2981 | 1.689
313.15 K, x1 = 0.3977 | 1.428
313.15 K, x1 = 0.5081 | 1.228
313.15 K, x1 = 0.5937 | 1.096
313.15 K, x1 = 0.7001 | 0.974
313.15 K, x1 = 0.7989 | 0.903
313.15 K, x1 = 0.8893 | 0.848
313.15 K, x1 = 0.9538 | 0.819

CCCCCCn1cc[n+](C)c1.F[B-](F)(F)F + CC(C)CO
101 kPa
Details | viscosity [mPa·s]
293.15 K, x1 = 0.5606 | 49.75
303.15 K, x1 = 0.8327 | 84.55
308.15 K, x1 = 0.1004 | 4.975

O=C1NC(=O)c2ccccc21 + c1ccncc1
298.15 K, 101 kPa
Details | viscosity [mPa·s]
x1 = 0.0278 | 0.9878
x1 = 0.06788 | 1.182

Oc1ccccc1 + Nc1ccccc1
101 kPa
Details | viscosity [mPa·s]
293.15 K, x1 = 0.0786 | 5.09
293.15 K, x1 = 0.1517 | 6.1
293.15 K, x1 = 0.2315 | 7.35
293.15 K, x1 = 0.3105 | 8.89
293.15 K, x1 = 0.3914 | 10.59
293.15 K, x1 = 0.473 | 12.15
293.15 K, x1 = 0.5355 | 13.2
293.15 K, x1 = 0.6225 | 14.18
293.15 K, x1 = 0.693 | 14.47
293.15 K, x1 = 0.7683 | 14.21
293.15 K, x1 = 0.8489 | 13.31
293.15 K, x1 = 0.922 | 12.21
303.15 K, x1 = 0.0741 | 3.66
303.15 K, x1 = 0.1582 | 4.34
303.15 K, x1 = 0.2314 | 5.07
303.15 K, x1 = 0.3142 | 5.95
303.15 K, x1 = 0.3889 | 6.85
303.15 K, x1 = 0.4691 | 7.7
303.15 K, x1 = 0.5374 | 8.36
303.15 K, x1 = 0.6159 | 8.89
303.15 K, x1 = 0.6906 | 9.07
303.15 K, x1 = 0.7667 | 8.89
303.15 K, x1 = 0.8466 | 8.34
303.15 K, x1 = 0.9243 | 7.68
308.1 K, x1 = 0.349 | 5.39
308.1 K, x1 = 0.511 | 6.54
308.1 K, x1 = 0.677 | 7.21
308.1 K, x1 = 0.795 | 6.92
313.15 K, x1 = 0.0741 | 2.74
313.15 K, x1 = 0.1582 | 3.15
313.15 K, x1 = 0.2314 | 3.61
313.15 K, x1 = 0.3142 | 4.1
313.15 K, x1 = 0.3889 | 4.61
313.15 K, x1 = 0.4691 | 5.1
313.15 K, x1 = 0.5374 | 5.45
313.15 K, x1 = 0.6159 | 5.73
313.15 K, x1 = 0.6906 | 5.83
313.15 K, x1 = 0.7667 | 5.73
313.15 K, x1 = 0.8466 | 5.46
313.15 K, x1 = 0.9243 | 5.11

ClC(Cl)C(Cl)Cl + CNc1ccccc1
303 K, 101.33 kPa
Details | viscosity [mPa·s]
x2 = 0.1012 | 1.439
x2 = 0.1991 | 1.49
x2 = 0.3016 | 1.541
x2 = 0.4007 | 1.59
x2 = 0.5004 | 1.633
x2 = 0.6007 | 1.66
x2 = 0.7017 | 1.686
x2 = 0.7992 | 1.707
x2 = 0.9013 | 1.73

Reference: the CheMixHub viscosity set
